{
  "source": "patent US20240033234A1",
  "about": "“THERAPEUTIC COMPOUNDS, FORMULATIONS, AND USE THEREOF” (Tvardi Therapeutics, Inc., priority 2022, published 2024)",
  "assay": "Accelerated and long term stability study of TTI-101 (Batch A, Batch B): HPLC assay, purity, impurities and water content after storage at 5° C., 25° C./60% RH, 30° C./65% RH or 40° C./75% RH",
  "format": "physicochemical",
  "conditions": "for Impurities RRT 0.99: RRT of compound of formula (IV)",
  "protocol": "Exemplary HPLC conditions: diluent was 0.1% trifluoroacetic acid (TFA) in acetonitrile, Mobile Phase A was 0.05% TFA in water, and Mobile Phase B was 0.05% TFA in acetonitrile, column (Agilent, Eclipse XDB-C18, 3.0×100 mm, particle size 1.8 μm), flow (0.425 mL/min), and detector (280 nm diode array).\nBatch A was prepared analogously using Method 3 as described in Example 1. Batch B was prepared according to Method 5 as described in Example 1.\nSamples of TTI-101 were stored at 5° C., 25° C./60% RH, 30° C./65% RH, or 40° C./75% RH. TTI-101 was stored in an LDPE bag enclosed with a Nylon cable tie and then transferred to another LDPE bag and enclosed with a Nylon cable tie. The enclosure was put into an HDPE bottle and closed with a polyethylene-lined polypropylene cap. The samples were stored under the above-identified conditions.\nThe samples were analyzed using HPLC with the exemplary conditions identified above. Relative retention time (RRT) for Compound 5 was about 0.83, Compound 4 was about 1.05-1.06, Compound 6 was about 1.15-1.17, and compound of formula (IV) was about 0.99.\n• NA not applicable • NQ ≥0.02% and <0.05% • Avg average • Cmpd compound • — no peak • M month • RRT relative retention time",
  "key": {"[1]": {"conditions": "40° C./75% RH, 0 M, P1/P2, listed as Batch A"}, "[2]": {"conditions": "40° C./75% RH, 2 M, P1/P2, listed as Batch A"}, "[3]": {"conditions": "40° C./75% RH, 6 M, P1/P2, listed as Batch A"}},
  "note": "Several values for one entry are separate records, joined by “and”; a condition that tells them apart may be missing. Identical values can stand only once.",
  "data": [
    {"smiles": "COc1ccc(S(=O)(=O)Nc2cc(-c3c(O)ccc4ccccc34)c(O)c3ccccc23)cc1", "note": "[TTI-101]", "values": [
      {"measurement": "Impurities Total", "setting": "40° C./75% RH, 0 M, Avg", "result": 0.1, "unit": "area %"},
      {"measurement": "Purity (%)", "setting": "40° C./75% RH, 0 M, Avg", "result": 99.8, "unit": "%"},
      {"measurement": "Water Content (%)", "setting": "40° C./75% RH, 0 M, Avg", "result": "<0.04", "unit": "%"},
      {"measurement": "Impurities RRT 0.99", "setting": "40° C./75% RH, 0 M, Avg", "result": "NQ (≥0.02% and <0.05%)"},
      {"measurement": "Impurities RRT 1.32", "setting": "40° C./75% RH, 0 M, P1/P2", "result": "NQ (≥0.02% and <0.05%)"},
      {"measurement": "Impurities Total", "setting": "40° C./75% RH, 0 M, P1/P2", "result": 0.1, "unit": "area %"},
      {"measurement": "Purity (%)", "setting": "40° C./75% RH, 0 M, P1/P2", "result": 99.8, "unit": "%"},
      {"measurement": "Water Content (%)", "setting": "40° C./75% RH, 0 M, P1/P2", "result": "<0.04", "unit": "%"},
      {"measurement": "Assay (%)", "setting": "[1]", "result": "99.9% and 99.7%"},
      {"measurement": "Impurities RRT 1.17 (Cmpd 6)", "setting": "[1]", "result": "0.13 area % and 0.12 area %"},
      {"measurement": "Assay (%)", "setting": "40° C./75% RH, 2 M, Avg", "result": 99.9, "unit": "%"},
      {"measurement": "Impurities RRT 1.16 (Cmpd 6)", "setting": "40° C./75% RH, 2 M, Avg", "result": 0.07, "unit": "area %"},
      {"measurement": "Impurities RRT 1.29", "setting": "40° C./75% RH, 2 M, Avg", "result": "NQ (≥0.02% and <0.05%)"},
      {"measurement": "Impurities RRT 1.38", "setting": "40° C./75% RH, 2 M, Avg", "result": "NQ (≥0.02% and <0.05%)"},
      {"measurement": "Impurities Total", "setting": "40° C./75% RH, 2 M, Avg", "result": 0.1, "unit": "area %"},
      {"measurement": "Purity (%)", "setting": "40° C./75% RH, 2 M, Avg", "result": 99.9, "unit": "%"},
      {"measurement": "Water Content (%)", "setting": "40° C./75% RH, 2 M, Avg", "result": "<0.04", "unit": "%"},
      {"measurement": "Impurities RRT 0.99", "setting": "40° C./75% RH, 2 M, Avg", "result": "NQ (≥0.02% and <0.05%)"},
      {"measurement": "Impurities RRT 1.38", "setting": "40° C./75% RH, 2 M, P1/P2", "result": "NQ (≥0.02% and <0.05%)"},
      {"measurement": "Impurities Total", "setting": "40° C./75% RH, 2 M, P1/P2", "result": 0.1, "unit": "area %"},
      {"measurement": "Purity (%)", "setting": "40° C./75% RH, 2 M, P1/P2", "result": 99.9, "unit": "%"},
      {"measurement": "Water Content (%)", "setting": "40° C./75% RH, 2 M, P1/P2", "result": "<0.04", "unit": "%"},
      {"measurement": "Impurities RRT 0.99", "setting": "40° C./75% RH, 2 M, P1/P2", "result": "NQ (≥0.02% and <0.05%)"},
      {"measurement": "Assay (%)", "setting": "[2]", "result": "100.0% and 99.8%"},
      {"measurement": "Impurities RRT 1.16 (Cmpd 6)", "setting": "[2]", "result": "0.08 area % and 0.06 area %"},
      {"measurement": "Assay (%)", "setting": "40° C./75% RH, 3 M, Avg", "result": 99.0, "unit": "%"},
      {"measurement": "Impurities RRT 0.36", "setting": "40° C./75% RH, 3 M, Avg", "result": "NQ (≥0.02% and <0.05%)"},
      {"measurement": "Impurities RRT 1.06 (Cmpd 4)", "setting": "40° C./75% RH, 3 M, Avg", "result": 0.07, "unit": "area %"},
      {"measurement": "Impurities RRT 1.16 (Cmpd 6)", "setting": "40° C./75% RH, 3 M, Avg", "result": 0.21, "unit": "area %"},
      {"measurement": "Impurities Total", "setting": "40° C./75% RH, 3 M, Avg", "result": 0.3, "unit": "area %"},
      {"measurement": "Purity (%)", "setting": "40° C./75% RH, 3 M, Avg", "result": 99.7, "unit": "%"},
      {"measurement": "Water Content (%)", "setting": "40° C./75% RH, 3 M, Avg", "result": "<0.04", "unit": "%"},
      {"measurement": "Impurities RRT 1.06 (Cmpd 4)", "setting": "40° C./75% RH, 3 M, P1/P2", "result": 0.07, "unit": "area %"},
      {"measurement": "Impurities RRT 1.16 (Cmpd 6)", "setting": "40° C./75% RH, 3 M, P1/P2", "result": 0.21, "unit": "area %"},
      {"measurement": "Impurities Total", "setting": "40° C./75% RH, 3 M, P1/P2", "result": 0.3, "unit": "area %"},
      {"measurement": "Purity (%)", "setting": "40° C./75% RH, 3 M, P1/P2", "result": 99.7, "unit": "%"},
      {"measurement": "Water Content (%)", "setting": "40° C./75% RH, 3 M, P1/P2", "result": "<0.04", "unit": "%"},
      {"measurement": "Assay (%)", "setting": "40° C./75% RH, 3 M, P1/P2, listed as Batch A", "result": "100.8% and 97.2%"},
      {"measurement": "Impurities RRT 1.15 (Cmpd 6)", "setting": "40° C./75% RH, 6 M, Avg", "result": 0.13, "unit": "area %"},
      {"measurement": "Impurities Total", "setting": "40° C./75% RH, 6 M, Avg", "result": 0.1, "unit": "area %"},
      {"measurement": "Purity (%)", "setting": "40° C./75% RH, 6 M, Avg", "result": 99.9, "unit": "%"},
      {"measurement": "Water Content (%)", "setting": "40° C./75% RH, 6 M, Avg", "result": "<0.04", "unit": "%"},
      {"measurement": "Impurities Total", "setting": "40° C./75% RH, 6 M, P1/P2", "result": 0.1, "unit": "area %"},
      {"measurement": "Purity (%)", "setting": "40° C./75% RH, 6 M, P1/P2", "result": 99.9, "unit": "%"},
      {"measurement": "Water Content (%)", "setting": "40° C./75% RH, 6 M, P1/P2", "result": "<0.04", "unit": "%"},
      {"measurement": "Assay (%)", "setting": "[3]", "result": "98.5% and 95.9%"},
      {"measurement": "Impurities RRT 1.15 (Cmpd 6)", "setting": "[3]", "result": "0.13 area % and 0.12 area %"},
      {"measurement": "Assay (%)", "setting": "40° C./75% RH, 8 M, Avg", "result": 100.3, "unit": "%"},
      {"measurement": "Impurities RRT 1.16 (Cmpd 6)", "setting": "40° C./75% RH, 8 M, Avg", "result": 0.08, "unit": "area %"},
      {"measurement": "Impurities Total", "setting": "40° C./75% RH, 8 M, Avg", "result": 0.1, "unit": "area %"},
      {"measurement": "Purity (%)", "setting": "40° C./75% RH, 8 M, Avg", "result": 99.9, "unit": "%"},
      {"measurement": "Water Content (%)", "setting": "40° C./75% RH, 8 M, Avg", "result": 0.04, "unit": "%"},
      {"measurement": "Impurities Total", "setting": "40° C./75% RH, 8 M, P1-P6", "result": 0.1, "unit": "area %"},
      {"measurement": "Purity (%)", "setting": "40° C./75% RH, 8 M, P1-P6", "result": 99.9, "unit": "%"},
      {"measurement": "Assay (%)", "setting": "40° C./75% RH, 8 M, P1-P6, listed as Batch A", "result": "100.0% and 99.8% and 100.3% and 100.6% and 99.9% and 100.8%"},
      {"measurement": "Impurities Total", "setting": "Storage 5° C., 0 M, Avg", "result": 0.1, "unit": "area %"},
      {"measurement": "Impurity RRT 0.61", "setting": "Storage 5° C., 0 M, Avg", "result": 0.05, "unit": "area %"},
      {"measurement": "Impurity RRT 0.86", "setting": "Storage 5° C., 0 M, Avg", "result": "NQ (≥0.02% and <0.05%)"},
      {"measurement": "Impurity RRT 0.88", "setting": "Storage 5° C., 0 M, Avg", "result": "NQ (≥0.02% and <0.05%)"},
      {"measurement": "Impurity RRT 0.99", "setting": "Storage 5° C., 0 M, Avg", "result": "NQ (≥0.02% and <0.05%)"},
      {"measurement": "Impurity RRT 1.16 (Cmp 6)", "setting": "Storage 5° C., 0 M, Avg", "result": 0.07, "unit": "area %"},
      {"measurement": "Purity", "setting": "Storage 5° C., 0 M, Avg", "result": 99.8, "unit": "%"}
    ]}
  ]
}
